Series [1] can be described thus: Metabolic stability in human hepatocytes assessed as compound remaining measured after 60 mins. The class given is ADME, cell-based, Hepatocyte. The settings on record: read-out: Stability.
A short description of series [2]: Lipophilicity, logD of compound at pH 7.4. The class given is physicochemical. The settings on record: buffer.
A short description of series [3]: Kinetic aqueous solubility of compound at pH 7.4. The class given is physicochemical. The settings on record: read-out: Kinetic_solubility.
Series [4] in a line: Kinetic aqueous solubility of compound at pH 4.5. The class given is physicochemical. Conditions: read-out: Kinetic_solubility.

Values after ≈ are worked out from the molar mass of the structure shown.

As to `Cc1ccc(NC(=O)N2CC[C@H](C(F)(F)F)C2)cc1-c1cc(OCCO)nc(N2CCOCC2)c1`, the remaining at 1 h in series [1] is 6%. Besides, in series [2], the logD (usually lipophilicity at a set pH, counting ionised and neutral species) came out at 3.51. Further, the solubility kinetic in series [3] is 83 µM (≈ 41 µg/mL).

Regarding `Cc1ccc(NC(=O)N2CCO[C@@H](C(F)(F)F)C2)cc1-c1cc(OCCO)nc(N2CCOCC2)c1`, the remaining at 1 h in series [1] was 54%. For the same compound, in series [3], the solubility kinetic is 56 µM (≈ 28.6 µg/mL).

For `Cc1ccc(NC(=O)N2CCO[C@H](C(F)(F)F)C2)cc1-c1cc(OCCO)nc(N2CCOCC2)c1`, in series [1], the remaining at 1 h is 93%. This compound returned a logD in series [2] of 3.46. Besides, in series [3], the solubility kinetic stood at 62 µM (≈ 31.7 µg/mL).

On to `Cc1ccc(NC(=O)N2CC[C@@H](CC(F)(F)F)C2)cc1-c1cc(OCCO)nc(N2CCOCC2)c1`, for which, in series [1], the remaining at 1 h turned out to be 19%. Besides, the solubility kinetic turned out to be 35 µM (≈ 17.8 µg/mL) in series [4] and 39 µM (≈ 19.8 µg/mL) in series [3]. Further, the logD in series [2] was found to be 3.73.

Turning to `Cc1ccc(NC(=O)N2CC[C@@H](C(F)(F)F)C2)cc1-c1cc(OCCO)nc(N2CCOCC2)c1`, the remaining at 1 h in series [1] was 7%. The compound further displayed a logD in series [2] of 3.49. In series [3], the solubility kinetic came to 83 µM (≈ 41 µg/mL).

(Values after ChEMBL document CHEMBL5537186 (J Med Chem, 2024).)
